Source: patent US7973219B2, “Method for producing transgenic plants resistant to weed control compounds which disrupt the porphyrin pathways of plants” (Sumitomo Chemical Company, Limited, priority 1998, dated 2011)
Where two headings read alike, the source gives them in different places.

Tested on: control recombinant tobacco
Assay: Leaf piece chlorophyll test, control recombinant tobacco
Assay type: in vivo
Details: control recombinant tobacco; for activity at 0.3 ppm: Nicotiana tabacum, read-out: Resistant level to test compound
Description: Then, according to the method described in Manual for Gene Manipulation of Plant (by Hirofumi UCHIMIYA, Kodan-sha Scientific, 1992), the gene was introduced into tobacco. Agrobacterium strain bearing plasmid pBIBCH was cultured at 28° C. overnight in LB medium and then leaf pieces of tobacco cultured sterilely were dipped in the liquid culture medium. The leaf pieces were cultured at room temperature for 2 days in Murashige-Skoog medium (MS-medium, described in Murasige T. and Skoog F., Physiol. Plant. (1962) 15, p 473) containing 0.8% agar, 0.1 mg/liter naphthalene acetic acid and 1.0 mg/liter benzyl aminopurine. Then, the leaf pieces were washed with sterilized water and cultured for 7 days on MS medium containing 0.8% agar, 0.1 mg/liter naphthalene acetic acid, 1.0 mg/liter benzyl aminopurine and 500 μg/ml cefotaxime. The leaf pieces were transplanted onto MS medium containing 0.8% agar, 0.1 mg/liter naphthalene acetic acid, 1.0 mg/liter benzyl aminopurine, 500 μg/ml cefotaxime and 100 μg/ml kanamycin (hereinafter referred to as selective MS medium) and cultured on the medium continuously for 4months with transplanting the tobacco leaf pieces onto fresh selective MS medium every 1 month. During culture, stem-leaf differentiated shoots were appeared from the tobacco leaf pieces, these shoots were transplanted to MS medium containing 0.8% agar, 300 μg/ml cefotaxime and 50 μg/ml kanamycin to induce roots to obtain regenerated plants. The resultant regenerated plant was transplanted and cultured on MS medium 0.8% agar and 50 μg/ml kanamycin to obtain tobacco plant into which bchH gene was introduced. Similarly, tobacco leaf pieces were infected with Agrobacterium strain bearing pNO to obtain regenerated plant from the tobacco leaf pieces and tobacco plant (hereinafter referred to as control recombinant tobacco).
The tobacco leaves into which bchH gene was introduced and control recombinant tobacco leaves obtained in Example 5 were collected and each leaf was divided into the right and left equivalent pieces along the main vein, respectively. To one piece was applied an aqueous solution containing 0.3 ppm PPO inhibitory-type herbicidal compound of Structure 8, while, to the other piece was not applied the compound. These leaf pieces were placed on MS medium containing 0.8% agar and allowed to stand at room temperature for 7 days in light place. Then, each leaf piece was ground with pestle and mortar in 5 ml of 80% aqueous acetone solution to extract chlorophyll. The extract liquid was diluted with 80% aqueous acetone solution and the absorbance was measured at 750 nm, 663 nm and 645 nm to calculate total chlorophyll content according to the method described by Macknney G., J. Biol. Chem. (1941) 140, p 315. The results obtained from 4 clones of tobacco into which bchH gene was introduced (BCH1 to 4) and control recombinant tobacco is shown in Table 4. In the table, the resistant level to the herbicidal compound was represented by percentages of the total chlorophyll content of leaf pieces treated with herbicidal compound to that of untreated leaf pieces.
The tobacco clone into which bchH gene was introduced and control recombinant tobacco were also treated in the same manner with the solution containing PPO inhibitory-type herbicidal compound represented by the above Structure 3, 7, 10, 11, 13, 17, 23, 24, 25, 27, 28, 30 or 35, and the resistant level to each herbicidal compound was measured. In the table, the resistant levels to the herbicidal compound were represented by percentages of the total chlorophyll content of leaf pieces treated with the herbicidal compound to that of untreated leaf pieces.
The level of resistance to PPO inhibitory type herbicidal compound represented by Structure 8 was confirmed quantitatively by testing tobacco into which the gene encoding the variant soybean PPO prepared in Example 13 was introduced according to the same manner as in Example 6. […]

With `C#CCOc1cc(N2C(=O)C3=C(CCCC3)C2=O)c(F)cc1Cl` [Structure 8] the activity at 0.3 ppm (168 h, 0.3 ppm, 7 days in light, chlorophyll of treated vs untreated leaf pieces, Table 4) was 7.63%, the activity at 0.3 ppm (same manner as Example 6 (0.3 ppm), treated vs untreated leaf pieces, Table 8) was 10% and the activity at 0.3 ppm (same manner as Example 6 (0.3 ppm), treated vs untreated leaf pieces, Table 10) was 18.4%. The activity at 0.3 ppm (same manner as Example 6 (0.3 ppm), treated vs untreated leaf pieces, Table 12) was 8.29%, the “Total chlorophyll content treated-leaf” value (0.3 ppm, leaf pieces 7 days in light place, Table 4) was 0.19 mg/g-fresh weight and the resistant level (2.0 ppm, 7 days in a light place, chlorophyll of treated vs untreated leaf pieces, Example 37) was 2.88%. For the same compound, the “Total chlorophyll content treated-leaf” value (same manner as Example 6 (0.3 ppm, 7 days in light), Table 8) was 0.35 mg/g-fresh weight, the “Total chlorophyll content treated-leaf” value (same manner as Example 6 (0.3 ppm, 7 days in light), Table 10) was 0.42 mg/g-fresh weight and the “Total chlorophyll content treated-leaf” value (same manner as Example 6 (0.3 ppm, 7 days in light), Table 12) was 0.160 mg/g-fresh weight.
